Experiment in all cases: relative viability (nuclei count vs DMSO), 5 days (fraction); higher = more cells survive
Compound in assay [1]: O=c1[nH]cc(F)c(=O)[nH]1 [5-Fluorouracil] + Cc1nc(Nc2ncc(C(=O)Nc3c(C)cccc3Cl)s2)cc(N2CCN(CCO)CC2)n1 [Dasatinib] (partner 0.075 µM)
Put shortly: (§1)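 A single step with final 0.05% Triton X-100, 1% formaldehyde and 1 ug/ml Hoechst fixed the cells and stained nuclei 5 days after treatment. Lung cancer cell lines in 1536-well plates had been treated by pin tool the day after seeding with one drug alone or a fixed anchor-drug dose plus five library-drug doses (not always all listed) in √10 steps, and nuclei were counted on 4× images. Relative viability is the ratio of nuclei in treated wells to nuclei in vehicle wells, taken as the median of duplicate plates.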

Compound in assay [2]: O=c1[nH]cc(F)c(=O)[nH]1 [5-Fluorouracil] + CC(C)C[C@H](NC(=O)[C@H](Cc1ccccc1)NC(=O)c1cnccn1)B(O)O [Bortezomib] (partner 0.002 µM)
Put shortly: as §1

Compound in assay [3]: O=c1[nH]cc(F)c(=O)[nH]1 [5-Fluorouracil] + C[C@@H](Oc1cc(-c2cnn(C3CCNCC3)c2)cnc1N)c1c(Cl)ccc(F)c1Cl [Crizotinib] (partner 1 µM)
Put shortly: as §1

Compound in the assay “Sulindac + Trametinib”: CC1=C(CC(=O)O)c2cc(F)ccc2/C1=C\c1ccc([S+](C)[O-])cc1 [Sulindac] + CC(=O)Nc1cccc(-n2c(=O)n(C3CC3)c(=O)c3c(Nc4ccc(I)cc4F)n(C)c(=O)c(C)c32)c1 [Trametinib] (partner 0.02 µM)
Put shortly: as §1

For one cell line, relative viability results are on record in the supplement of paper PMC10307832.

Take UMC-11: the relative viability in assay [1] (first compound 0.02 µM) stood at 0.52; in assay [1] (first compound 0.2 µM), 0.467; in assay [1] (first compound 0.6325 µM) it was 0.438; in assay [1] (first compound 2 µM) it was 0.358; in assay [2] (first compound 0.02 µM), 0.674; in assay [2] (first compound 0.2 µM), 0.542. Further, the relative viability in assay [2] (first compound 0.6325 µM) is 0.368; in assay [2] (first compound 2 µM), 0.35; in assay [3] (first compound 0.02 µM) it was 0.52; in assay [3] (first compound 0.2 µM), 0.441; in assay [3] (first compound 0.6325 µM), 0.303; in assay [3] (first compound 2 µM), 0.232. Also, the relative viability with Sulindac + Trametinib (first compound 0.08 µM) came to 0.733; with Sulindac + Trametinib (first compound 0.253 µM), 0.764; with Sulindac + Trametinib (first compound 0.8 µM), 0.679; with Sulindac + Trametinib (first compound 2.53 µM), 0.654; with Sulindac + Trametinib (first compound 8 µM), 0.757.
